From publication PMC3522794 (Nature chemical biology, 2012)

How the values were obtained:
HCK^Y527F = HCK^Y527F (Homo sapiens, UniProt P08631, Y522F); assay: Pull-down assay to determine SH3 domain accessibility; type: binding; conditions: inhibitor 5 µM (saturating), kinase 100 nM; mean ± SEM, n=3
[1] = target: SNAP-tag-polyproline (PP) peptide fusion (…); assay: pull-down

| Percent kinase eluted (retained on PP ligand beads), HCK^Y527F (HCK^Y527F) [%] | Compound | percent of loaded kinase retained on the beads [1] [%] |
| --- | --- | --- |
| 27 | Cc1nc(Nc2ncc(C(=O)Nc3c(C)cccc3Cl)s2)cc(N2CCN(CCO)CC2)n1 [Dasatinib, dasatinib] |  |
|  | HCK^Y527F (HCK residues 84–531, Y527F, SRC residue numbering) (enzyme) | 27 |
